Test results: patent US12655116B2, “Substituted isophthalic acid diamides” (Bayer Aktiengesellschaft, priority 2020, dated 2026)

Experiments:
[1] = system: AMARE; test: Post-emergence herbicidal action against AMARE; type: in vivo, Amaranthus retroflexus; settings: Amaranthus retroflexus, 504 h, 20 g/ha, visual assessment about 3 weeks after treatment, 100% = plants have died, 0% = like control plants
Outline: (§1)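 A WP or EC formulation diluted in water with 0.2% wetting agent was sprayed at 600 to 800 l/ha onto one-leaf-stage plants grown in sandy loam. About 3 weeks later, action was rated visually in percent, 100% being dead plants.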

[2] = system: SETVI; test: Post-emergence herbicidal action against SETVI; type: in vivo, Setaria viridis; settings: Setaria viridis, 504 h; for pest or weed control at 20 g/ha: dosage 20 g/ha
Outline: as §1

[3] = system: VERPE; test: Pre-emergence herbicidal action against VERPE; type: in vivo, Veronica persica; settings: Veronica persica, 504 h, dosage 80 g/ha
Outline: (§2)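 Greenhouse pots of sandy loam held seeds covered with soil, onto which the compound was applied before emergence. An aqueous suspension or emulsion of WP or EC was used at 600 to 800 l/ha with 0.2% wetting agent. Percent damage was judged visually at 3 weeks.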

[4] = system: ECHCG; test: Pre-emergence herbicidal action against ECHCG; type: in vivo, Echinochloa crus-galli; settings: Echinochloa crus-galli, 504 h
Outline: as §2

[5] = system: ABUTH; test: Pre-emergence herbicidal action against ABUTH; type: in vivo, Abutilon theophrasti; settings: Abutilon theophrasti, 504 h; for pest or weed control at 80 g/ha: scored visually after 3 weeks vs untreated controls (100% = plants have died, 0% = like control plants); for pest or weed control at 20 g/ha: dosage 20 g/ha, scored visually after 3 weeks vs untreated controls, 100% = plants have died, 0% = like control plants, read-out: Pre-emergence action against ABUTH (herbicidal activity in percent)
Outline: as §2

[6] = system: STEME; test: Pre-emergence herbicidal action against STEME; type: in vivo, Stellaria media; settings: Stellaria media, 504 h; for pest or weed control at 20 g/ha: dosage 20 g/ha; for pest or weed control at 80 g/ha: dosage 80 g/ha
Outline: as §2

[7] = system: DIGSA; test: Post-emergence herbicidal action against DIGSA; type: in vivo, Digitaria sanguinalis; settings: Digitaria sanguinalis, 504 h
Outline: as §1

[8] = system: POLCO; test: Pre-emergence herbicidal action against POLCO; type: in vivo, Polygonum convolvulus; settings: Fallopia convolvulus, 504 h; for pest or weed control at 80 g/ha: dosage 80 g/ha
Outline: as §2

[9] = system: DIGSA; test: Pre-emergence herbicidal action against DIGSA; type: in vivo, Digitaria sanguinalis; settings: Digitaria sanguinalis, 504 h; for pest or weed control at 20 g/ha: dosage 20 g/ha; for pest or weed control at 80 g/ha: dosage 80 g/ha
Outline: as §2

[10] = system: SETVI; test: Pre-emergence herbicidal action against SETVI; type: in vivo, Setaria viridis; settings: Setaria viridis, 504 h; for pest or weed control at 80 g/ha: dosage 80 g/ha
Outline: as §2

[11] = system: AMARE; test: Pre-emergence herbicidal action against AMARE; type: in vivo, Amaranthus retroflexus; settings: Amaranthus retroflexus, 504 h, scored visually after 3 weeks vs untreated controls, 100% = plants have died, 0% = like control plants
Outline: as §2

[12] = system: ABUTH; test: Post-emergence herbicidal action against ABUTH; type: in vivo, Abutilon theophrasti; settings: Abutilon theophrasti, 504 h, visual assessment about 3 weeks after treatment vs untreated controls; for pest or weed control at 5 g/ha: dosage 5 g/ha; for pest or weed control at 20 g/ha: dosage 20 g/ha
Outline: as §1

[13] = system: ECHCG; test: Post-emergence herbicidal action against ECHCG; type: in vivo, Echinochloa crus-galli; settings: Echinochloa crus-galli, 504 h; for pest or weed control at 5 g/ha: dosage 5 g/ha; for pest or weed control at 20 g/ha: dosage 20 g/ha
Outline: as §1

[14] = system: VIOTR; test: Post-emergence herbicidal action against VIOTR; type: in vivo, Viola tricolor; settings: Viola tricolor, 504 h
Outline: as §1

[15] = system: VERPE; test: Post-emergence herbicidal action against VERPE; type: in vivo, Veronica persica; settings: Veronica persica, 504 h, 20 g/ha
Outline: as §1

[16] = system: STEME; test: Post-emergence herbicidal action against STEME; type: in vivo, Stellaria media; settings: Stellaria media, 504 h, 20 g/ha
Outline: as §1

[17] = system: MATIN; test: Post-emergence herbicidal action against MATIN; type: in vivo, Matricaria inodora; settings: Tripleurospermum inodorum, 504 h; for pest or weed control at 5 g/ha: dosage 5 g/ha; for pest or weed control at 20 g/ha: dosage 20 g/ha
Outline: as §1

[18] = system: ALOMY; test: Pre-emergence herbicidal action against ALOMY; type: in vivo, Alopecurus myosuroides; settings: Alopecurus myosuroides, 504 h; 80 g/ha, pre-emergence, scored visually after 3 weeks vs untreated controls (100% = plants have died, 0% = like control plants)
Outline: as §2

[19] = system: AVEFA; test: Pre-emergence herbicidal action against AVEFA; type: in vivo, Avena fatua; settings: Avena fatua, 504 h, pre-emergence
Outline: as §2

[20] = system: PHBPU; test: Pre-emergence herbicidal action against PHBPU; type: in vivo, Pharbitis purpurea; settings: Ipomoea purpurea, 504 h, dosage 80 g/ha
Outline: as §2

[21] = system: LOLRI; test: Pre-emergence herbicidal action against LOLRI; type: in vivo, Lolium rigidum; settings: Lolium rigidum, 504 h, 80 g/ha
Outline: as §2

[22] = system: VIOTR; test: Pre-emergence herbicidal action against VIOTR; type: in vivo, Viola tricolor; settings: Viola tricolor, 504 h; for pest or weed control at 20 g/ha: dosage 20 g/ha; for pest or weed control at 80 g/ha: dosage 80 g/ha
Outline: as §2

[23] = system: PHBPU; test: Post-emergence herbicidal action against PHBPU; type: in vivo, Pharbitis purpurea; settings: Ipomoea purpurea, 504 h; for pest or weed control at 5 g/ha: dosage 5 g/ha; for pest or weed control at 20 g/ha: dosage 20 g/ha
Outline: as §1

[24] = system: MATIN; test: Pre-emergence herbicidal action against MATIN; type: in vivo, Matricaria inodora; settings: Tripleurospermum inodorum, 504 h; for pest or weed control at 20 g/ha: dosage 20 g/ha; for pest or weed control at 80 g/ha: dosage 80 g/ha
Outline: as §2

[25] = system: ALOMY; test: Post-emergence herbicidal action against ALOMY; type: in vivo, Alopecurus myosuroides; settings: Alopecurus myosuroides, 504 h, dosage 20 g/ha, visual assessment about 3 weeks after treatment vs untreated controls
Outline: as §1

[26] = system: AVEFA; test: Post-emergence herbicidal action against AVEFA; type: in vivo, Avena fatua; settings: Avena fatua, 504 h, 20 g/ha, visual assessment about 3 weeks after treatment, 100% = plants have died, 0% = like control plants
Outline: as §1

Compound | pest or weed control at 20 g/ha [1] | pest or weed control at 20 g/ha [2] | pest or weed control at 80 g/ha [3] | pest or weed control at 80 g/ha [4] | pest or weed control at 80 g/ha [5] | pest or weed control at 20 g/ha [5] | pest or weed control at 5 g/ha [7] | pest or weed control at 20 g/ha [7] | pest or weed control at 80 g/ha [8] | pest or weed control at 20 g/ha [9] | pest or weed control at 80 g/ha [9] | pest or weed control at 80 g/ha [10] | pest or weed control at 20 g/ha [11] | pest or weed control at 80 g/ha [11] | pest or weed control at 5 g/ha [12] | pest or weed control at 20 g/ha [12] | pest or weed control at 5 g/ha [13] | pest or weed control at 20 g/ha [13] | pest or weed control at 5 g/ha [14] | pest or weed control at 20 g/ha [14] | further results
CCNC(=O)c1c(C(F)F)ccc(C(=O)Nc2nnnn2C)c1C [Example 1-45] | 90% | 80% | 90% | 90% | 100% | 80% | 80% | 80% | 90% | 100% | 100% | 100% | 100% | 100% | 80% | 90% | 80% | 80% | 80% | 90% | pest or weed control at 20 g/ha [6]: 90%; pest or weed control at 80 g/ha [6]: 90%; pest or weed control at 20 g/ha ([8]; dosage 20 g/ha): 90%; pest or weed control at 20 g/ha [15]: 80%; pest or weed control at 20 g/ha [16]: 80%; pest or weed control at 5 g/ha [17]: 80%; pest or weed control at 20 g/ha [17]: 80%; pest or weed control at 80 g/ha [18]: 90%; pest or weed control at 80 g/ha [19]: 90%; pest or weed control at 80 g/ha [20]: 90%; pest or weed control at 80 g/ha [21]: 80%; pest or weed control at 20 g/ha [22]: 80%; pest or weed control at 80 g/ha [22]: 100%; pest or weed control at 5 g/ha [23]: 80%; pest or weed control at 20 g/ha [23]: 80%; pest or weed control at 20 g/ha [24]: 100%; pest or weed control at 80 g/ha [24]: 100%
Cc1c(C(=O)Nc2nnnn2C)ccc(C(F)F)c1C(=O)NC1CC1 [Example 1-46] | 100% | 80% | 90% | 80% | 100% | 90% | 80% | 80% | 80% | 90% | 100% | 100% | 100% | 100% | 90% | 90% | 80% | 80% | 80% | 80% | pest or weed control at 20 g/ha [6]: 90%; pest or weed control at 80 g/ha [6]: 100%; pest or weed control at 20 g/ha [25]: 90%; pest or weed control at 20 g/ha [15]: 90%; pest or weed control at 20 g/ha [16]: 80%; pest or weed control at 20 g/ha [17]: 80%; pest or weed control at 80 g/ha [18]: 90%; pest or weed control at 80 g/ha [19]: 100%; pest or weed control at 80 g/ha [20]: 80%; pest or weed control at 80 g/ha [21]: 90%; pest or weed control at 20 g/ha [22]: 90%; pest or weed control at 80 g/ha [22]: 100%; pest or weed control at 5 g/ha [23]: 80%; pest or weed control at 20 g/ha [23]: 80%; pest or weed control at 20 g/ha [26]: 80%; pest or weed control at 20 g/ha [24]: 90%; pest or weed control at 80 g/ha [24]: 100%
CCn1nnnc1NC(=O)c1ccc(C(F)(F)F)c(C(=O)NC2CC2)c1C1CC1 [Example 2-288] | 100% | 90% | 100% | 100% | 100% | 100% | 90% | 90% | 90% | 100% | 100% | 100% | 100% | 100% | 80% | 80% | 80% | 80% | 90% | 100% | pest or weed control at 5 g/ha ([2]; dosage 5 g/ha): 80%; pest or weed control at 20 g/ha ([4]; 20 g/ha): 90%; pest or weed control at 20 g/ha ([10]; dosage 20 g/ha): 90%; pest or weed control at 20 g/ha [25]: 90%; pest or weed control at 20 g/ha [15]: 80%; pest or weed control at 5 g/ha [17]: 80%; pest or weed control at 20 g/ha [17]: 90%; pest or weed control at 80 g/ha [18]: 90%; pest or weed control at 80 g/ha [19]: 90%; pest or weed control at 20 g/ha ([19]; 20 g/ha, scored visually after 3 weeks, 100% = plants have died, 0% = like control plants): 80%; pest or weed control at 80 g/ha [20]: 90%; pest or weed control at 80 g/ha [21]: 90%; pest or weed control at 20 g/ha [22]: 100%; pest or weed control at 80 g/ha [22]: 100%; pest or weed control at 5 g/ha [23]: 80%; pest or weed control at 20 g/ha [23]: 90%; pest or weed control at 20 g/ha [26]: 80%; pest or weed control at 20 g/ha [24]: 90%; pest or weed control at 80 g/ha [24]: 100%
